Source: patent US10604696B2, “Process for acidizing” (Cleansorb Limited, priority 2014, dated 2020)

What was measured:
[1] = Calcium salt precipitation at 5° C. from spent acidizing solutions; assay type: physicochemical; details: 2.7 g CaCO3 in 100 ml, 65 hours at approximately 25° C., then 20 hours at 5° C.
Method: 100 ml solutions were prepared in deionised water in 100 ml Duran bottles: 2.7 g of laboratory grade CaCO3 was added to each solution. Acidizing was allowed to proceed at room temperature (approximately 25° C.) for 65 hours. To simulate the effect of low temperature spent acidizing solutions were placed in a refrigerator at 5° C. and observed at 20 hours for the presence of any precipitate.

[2] = Calcium salt precipitation following acidising of calcium carbonate in fresh water; assay type: physicochemical
Description: The dissolving capacities of delta glucono lactone and […] (a formic acid precursor commercially available from Cleansorb Limited of Guildford, UK) and their capacity for precipitation of calcium salts is shown in Table 1.

Calcium salt precipitated at 5° C. following acidising ([1]; 10% w/v glucono delta lactone plus sodium acetate 5% w/v): No
Calcium salt precipitated at 5° C. following acidising ([1]; 10% w/v glucono delta lactone plus sodium lactate 60% solution 10.8% w/v): No
Calcium salt precipitated at 5° C. following acidising ([1]; 10% w/v glucono delta lactone, no additional component): Yes
Calcium salt precipitated at 5° C. following acidising ([1]; 22% w/v glucono delta lactone plus sodium acetate 5% w/v): No
Calcium salt precipitated at 5° C. following acidising ([1]; 22% w/v glucono delta lactone plus sodium lactate 60% solution 10.8% w/v): No
Calcium salt precipitated at 5° C. following acidising ([1]; 22% w/v glucono delta lactone, no additional component): Yes
Calcium salt precipitated following acidising of calcium carbonate in fresh water ([2]; acid precursor used at 1% w/v): No
Calcium salt precipitated following acidising of calcium carbonate in fresh water ([2]; acid precursor used at 2% w/v): No
Calcium salt precipitated following acidising of calcium carbonate in fresh water ([2]; acid precursor used at 3% w/v): Yes
Calcium salt precipitated following acidising of calcium carbonate in fresh water ([2]; acid precursor used at 5% w/v): Yes
Calcium salt precipitated following acidising of calcium carbonate in fresh water ([2]; acid precursor used at 10% w/v): Yes
Structure (SMILES): O=C1O[C@H](CO)[C@@H](O)[C@H](O)[C@H]1O [Glucono delta lactone, D-(+)-Gluconic acid δ-lactone]
